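Values below derive from 48-hour exposures of cells grown in 96-well plates, with endpoints linearly interpolated between the two concentrations bracketing the appropriate inhibition level. GI50: concentration for 50% inhibition of growth. TGI is the concentration that stops growth completely.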 A value given as a limit tells only on which side of the number the result lay.

What all share (assay): NCI anticancer screen, dose series, 48 h
For test [1], the system named is MDA-MB-231 breast.
For test [2], the system named is OVCAR-8 ovarian.
Test [3] relates to SF-295 CNS.
Test [4] deals with K-562 leukemia.
Test [5] concerns MCF7 breast.
The test system of test [6] is EKVX NSCLC.
In test [7] the test system is SF-268 CNS.
Test [8] has as its system MALME-3M melanoma.
The test system of test [9] is CAKI-1 renal.
Test [10] relates to SK-MEL-28 melanoma.

On to `O=C(O)c1cc(/C=C/c2cc(O)ccc2O)ccc1O`, for which the TGI in test [1], in test [2], in test [3], in test [4], in test [5] and in test [6] was above 10 µM each time. Besides, the TGI in test [7] and in test [8] was above 10 µM throughout.
For `CCOC(=O)c1c(C)n2c(=O)cc(C)c3c(O)c(O)cc1c32`, the GI50 in [1] was 4.49 µM; in test [2] it was 2.7 µM; in [3], 10.3 µM; in test [4], 3.46 µM; in [9], 2.2 µM; in [10], 27.2 µM. Moreover, the GI50 in test [5] was 6.61 µM; in [6], 20.8 µM; in test [7], 5.88 µM. For the same molecule, the TGI is 30.2 µM in test [1]; 9.32 µM in [2]; above 100 µM in test [3]; 33.3 µM in test [4]; above 100 µM in test [9]; above 100 µM in test [10]. Besides, the TGI in test [5], in test [6] and in [7] was above 100 µM each time.
As for `Cc1ccccc1-n1ncc(C(=O)c2ccccc2)c1N`, the GI50 in test [1], in [2], in test [3], in test [4], in test [9] and in [10] was above 25 µM throughout. Also, the GI50 in [5], in [7] and in [8] was above 25 µM each time. In addition, the TGI in [1], in test [2], in [3], in test [4], in test [9] and in test [10] was above 25 µM in each case. Besides, the TGI in [5], in [7] and in test [8] was above 25 µM each time.
On to `COc1ccc(C(=O)c2cc(OC)c(OC)c(OC)c2)cc1/C=C/C(=O)c1ccc(OC)c(OC)c1`, for which the GI50 in test [1] is 0.659 µM; in [2] it was 1.85 µM; in test [3] it was 5.26 µM; in test [4], 0.4 µM; in [9], 0.829 µM; in test [10], 4.59 µM. For the same molecule, the GI50 in [5] was 0.418 µM; in test [7], 3 µM. Also, the TGI in [1], in test [2], in [3], in test [4], in test [9] and in test [10] was above 100 µM each time. For the same molecule, the TGI in [5] and in [7] was above 100 µM throughout.
On to `O=C(c1ccccc1)c1ccc(Oc2ccc([N+](=O)[O-])cc2[N+](=O)[O-])cc1`, for which the GI50 in test [1] was 6.74 µM; in test [2], 3.39 µM; in test [3], 2.62 µM; in test [4], 2.63 µM; in test [9] it was 2.29 µM; in [10], 7.03 µM. Besides, the values for the GI50 in test [5], in [6] and in test [7] were 3.71 µM, 13.2 µM and 3.3 µM, respectively. Besides, the TGI in test [1] was 49.9 µM; in [2] it was 14.4 µM; in test [3] it was 8.51 µM; in [4], above 100 µM; in test [9], 5.52 µM; in [10] it was 36.7 µM. Further, the TGI was 19.7 µM in test [5], 38.4 µM in [6] and 11.9 µM in test [7].
Regarding `O=C(CN(/C=C/C(=O)C(F)(F)F)c1ccc(Cl)cc1)c1ccccc1`, the GI50 in test [1] is 15.8 µM; in test [2] it was 44 µM; in [3], 12.1 µM; in test [4], 2.8 µM; in test [9], 0.933 µM; in test [10] it was 17.3 µM. Further, the figures for the GI50 in [5], in [6] and in test [7] were above 100 µM, 15.1 µM and above 100 µM, respectively. Moreover, the TGI is 33.8 µM in [1]; above 100 µM in test [2]; 41.4 µM in [3]; above 100 µM in [4]; 22.8 µM in test [9]; 37.5 µM in [10]. Also, the TGI in [5] was above 100 µM; in [6], 34.1 µM; in test [7], above 100 µM.
For `Cc1ccc(S(=O)(=O)N2CCSCCN(S(=O)(=O)c3ccc(C)cc3)CCN(S(=O)(=O)c3ccc(C)cc3)CC2)cc1`, the TGI in test [1] was 59.5 µM; in test [2], above 100 µM; in test [3], above 100 µM; in [4], above 100 µM; in test [10], above 100 µM; in test [5], above 100 µM. For the same molecule, the TGI in [6] and in test [7] was above 100 µM each time.
As to `Cc1ccc(-c2cc3c(SCC(=O)Nc4cc(C(F)(F)F)ccc4Cl)nccn3n2)cc1`, the GI50 was 94.5 µM in test [1]; 29.8 µM in test [2]; above 100 µM in test [3]; above 100 µM in [4]; above 100 µM in [9]; above 100 µM in test [10]. Also, the results for the GI50 in test [5], in test [7] and in test [8] were above 100 µM, 79.4 µM and above 100 µM, respectively. Also, the TGI in test [1], in test [2], in test [3], in test [4], in test [9] and in test [10] was above 100 µM each time. The TGI in [5], in [7] and in test [8] was above 100 µM in each case.
As to `C/C(=C\CCc1ccoc1)CC/C=C(\C)CCCN1CCOCC1`, the GI50 in test [1] is 2.9 µM; in [2] it was 13.7 µM; in test [3] it was 3.95 µM; in [9], 3.65 µM; in test [10], 10.3 µM; in [5], 2.71 µM. Besides, the GI50 in [7] is 7.03 µM. Also, the TGI came out at 12.2 µM in test [1]; 28 µM in [2]; 16.1 µM in test [3]; 14.9 µM in [9]; 24 µM in [10]; 11.2 µM in test [5]. The same molecule came in with a TGI in [7] of 21.7 µM.
As to `NC(N)=N/N=C/c1c(-c2cc(Cl)sc2Cl)nc2sccn12`, the GI50 in [1] is 0.751 µM; in test [2], 1.04 µM; in test [3] it was 1.62 µM; in [4] it was 1.32 µM; in [9], 7.65 µM; in test [5], 0.843 µM. Besides, the GI50 in test [6] was 3.72 µM; in test [7], 1.26 µM. The TGI in test [1] turned out to be 1.75 µM; in test [2] it was 2.84 µM; in test [3], 6.15 µM; in test [4], 3.14 µM; in [9], 16.3 µM; in [5] it was 2.05 µM. Also, the TGI in test [6] came out at 13.1 µM; in [7] it was 3.9 µM.
For the molecule `Clc1cccc(Cl)c1C1CSc2ccccc2N=C1c1ccccc1` (centres undefined), the GI50 is 2.95 µM in test [1]; 3.34 µM in test [2]; 13.6 µM in test [3]; 10.6 µM in [9]; 4.82 µM in [10]; 0.595 µM in test [5]. The GI50 in [7] was 3.07 µM; in [8], 10.9 µM. In addition, the TGI amounted to 14.1 µM in test [1]; 10.2 µM in test [2]; 31.7 µM in [3]; 29.8 µM in test [9]; 17.3 µM in [10]; 11.6 µM in [5]. The TGI in test [7] came to 11.2 µM; in test [8], 27.8 µM.
`Nc1nc2c(s1)CCc1c-2c(Br)n(Cc2ccccc2)c1Br`: the GI50 is 14.1 µM in test [1]; 6.48 µM in test [2]; 16.6 µM in [3]; 3.55 µM in test [4]; 3.14 µM in [9]; 12.9 µM in test [10]. In addition, the figures for the GI50 in test [5], in [7] and in [8] were 11.9 µM, 14.6 µM and 3.76 µM, respectively. The TGI in test [1] turned out to be 48.7 µM; in test [2], 64.2 µM; in test [3] it was 33.4 µM; in [4], 19.3 µM; in test [9], 12.1 µM; in [10] it was 26.2 µM. Also, the TGI in [5] worked out at 28.6 µM; in test [7], 39 µM; in [8], 15.4 µM.
Turning to `COc1ccc2c(c1)[n+](=O)c(C(=O)c1ccco1)c(C(F)(F)F)n2[O-]`, the GI50 in test [1] is 3.01 µM; in test [2], 2.23 µM; in test [3], 2.79 µM; in [4], 5.24 µM; in test [9], 0.642 µM; in test [10], 12.3 µM. Further, the GI50 was 3.82 µM in test [5], 3.47 µM in test [6] and 3.41 µM in [7]. The TGI was 13.2 µM in test [1]; 9.41 µM in test [2]; 14.7 µM in [3]; above 100 µM in [4]; 4.54 µM in test [9]; 94.9 µM in test [10]. Moreover, the TGI in test [5] is above 100 µM; in [6] it was 9.81 µM; in test [7], 33.2 µM.

The values are drawn from PubChem BioAssay (NCI).
